In the oligonucleotide strings, read from the 5' end, every base follows the letter of its sugar. An asterisk marks phosphorothioate; unmarked linkages are phosphodiester. Other units and linkages are bracketed, terminal groups are in braces. A string of capitals states the bases alone. e = 2'-O-(2-methoxyethyl) (MOE); [5mC] = 5-methylcytosine; d = 2'-deoxy (DNA)
How the values were obtained:
human bcl-x mRNA = test: Total bcl-x mRNA and bcl-xs/bcl-xl ratio in A549 cells, RNase protection; format: cell-based; conditions: A549 cells; for bcl-xs/bcl-xl: 200 nM oligonucleotide (Table 15)
Description: (§1) In accordance with the present invention, a series of oligonucleotides were designed to target different regions of human bcl-x RNA, using published sequences (Boise, L. H., et al., 1993, Cell 74, 597-608; Genbank Accession No. L20121, locus name “HSBCLXL,” incorporated herein as SEQ ID NO: 39). Antisense oligonucleotides were designed to target areas of exon 1 and exon 2 of human bcl-x, particularly around the exon 1/exon 2 splice site and in sequence regions present in bcl-xl but not in bcl-xs. All backbone linkages are phosphorothioates; All 2′MOE cytosines are 5-methylcytosines.
(§2) Oligonucleotides were evaluated for their respective effects on bcl-xs and bcl-xl3 mRNA levels in A549 cells along with total bcl-x mRNA levels, using the RIBOQUANT™ RNase protection kit (Pharmingen, San Diego Calif.). All assays were performed according to manufacturer's protocols.
(§3) A “walk” was done in this region with 20mer 2′-MOE phosphorothioate oligonucleotides targeted to sequences whose 5′ ends were 24, 26, 29, 31, 33, 37, 39, 41, 43, 44, 45 and 47 bases upstream of the splice site. These oligonucleotides were screened as before at a dose of 200 nM oligonucleotide for effect on short and long bcl-x transcripts.

human bcl-xl mRNA = test: bcl-xl mRNA in A549 cells, RIBOQUANT RNase protection; format: cell-based; conditions: 200 nM oligonucleotide (Table 15)
Description: as §1, §2, §3

human bcl-xs mRNA = test: bcl-xs mRNA in A549 cells, RIBOQUANT RNase protection; format: cell-based; conditions: 200 nM oligonucleotide (Table 15)
Description: as §1, §2, §3

[1] = system: murine IL-5 receptor α mRNA, membrane form; test: Membrane IL-5 receptor α mRNA by Northern blot in BCL1 cells; format: cell-based, mouse; conditions: for % control membrane IL-5 Rα / % inhib'n membrane IL-5 Rα / % inhibition of membrane IL-5 Rα: BCL1 cells, 10 μM; for % control membrane IL-5 Rα / % inhib'n membrane IL-5 Rα: 24 hours, uniform 2′-MOE; for % inhibition of membrane IL-5 Rα: Northern blot, compared to untreated control, 2′-MOE gapmers; for % INHIB'N MEMBRANE IL-5 RECEPTOR: 10 μM dose, exon-exon boundary oligonucleotides
Description: (§4) Murine BCL1 cells were chosen for screening antisense oligonucleotides targeted to murine IL-5 receptor α. These are B-cell leukemia cells derived from a spontaneously arising tumor of BALB/c origin, and proliferate in response to murine or human IL-5. This is a CD5+line which resembles a subset of human chronic lymphocytic leukemia tumors and secretes IgM upon lipopolysaccharide stimulation. Cells were obtained from the American Type Culture Collection and cultured in RPMI 1640 medium supplemented with 10% heat-inactivated fetal bovine serum (Sigma Chemical Co., St. Louis, Mo.), 10 mM Hepes, pH 7.2, 50 μM 2-ME, 2 mM L-glutamine, 100 U/ml penicillin and 100 μg/ml streptomycin (Gibco, Grand Island, N.Y.).
(§5) The effect of these compounds on both membrane and soluble forms of murine IL-5 receptor α were measured and are shown in Table 1B. Oligonucleotides were screened in BCL1 cells at a dose of 10 μM and IL-5 receptor α mRNA was measured by Northern blot. Percent inhibition is compared to untreated (no oligo) control.
(§6) Total BCL1 cellular RNA was isolated using the RNeasy™ kit (Qiagen, Santa Clara Calif.) . Northern blotting was performed using standard methods. The cDNA probes were generated from oligonucleotides matching the exon sequences of either exons 2, 8, 9 or 10. Signals were quantitated using a Molecular Dynamics PhosphorImager.

[2] = system: murine IL-5 receptor α mRNA, soluble form; test: Soluble IL-5 receptor α mRNA by Northern blot in BCL1 cells; format: cell-based, mouse; conditions: for % control soluble IL-5 Rα / % inhibition of soluble IL-5 Rα: BCL1 cells, 10 μM; for % control soluble IL-5 Rα: 24 hours, uniform 2′-MOE; for % inhibition of soluble IL-5 Rα: Northern blot, compared to untreated control, 2′-MOE gapmers; for % INHIB'N SOLUBLE IL-5 RECEPTOR: 10 μM dose, exon-exon boundary oligonucleotides
Description: as §4, §5, §6

## 26072 (antisense CCGCCGTTCTCCTGGATCCA; all 2'-MOE, all phosphorothioate, methylation of C not given here) [compound 26072]
Human bcl-x mRNA
  bcl-xs/bcl-xl: 5.38
Human bcl-xl mRNA
  % CONTROL bcl-xl: 42%
Human bcl-xs mRNA
  % CONTROL bcl-xs: 226%

## 21757 (eT*eG*eA*eG*eA*eA*eG*eA*eT*eT*eA*eA*e[5mC]*eA*eA*eG*eA*e[5mC]*eG*eA; splice-switching) [compound 21757]
[1]
  % control membrane IL-5 Rα: 19%
  % inhib'n membrane IL-5 Rα: 81%
[2]
  % control soluble IL-5 Rα: 144%

## 18007 (eT*eG*e[5mC]*eA*eG*dA*dT*dG*dA*dG*dT*dG*dA*dG*dA*eA*eG*eA*eT*eT; antisense) [compound 18007]
[1]
  % inhibition of membrane IL-5 Rα: 65%
[2]
  % inhibition of soluble IL-5 Rα: 65%

## 26069 (antisense TCTCCTGGATCCAAGGCTCT; all 2'-MOE, all phosphorothioate, methylation of C not given here) [compound 26069]
Human bcl-x mRNA
  bcl-xs/bcl-xl: 5.80
Human bcl-xl mRNA
  % CONTROL bcl-xl: 40%
Human bcl-xs mRNA
  % CONTROL bcl-xs: 232%

## 21851 (eT*eA*eA*eA*eT*eG*eA*e[5mC]*eA*e[5mC]*eA*e[5mC]*eT*e[5mC]*eT*eG*e[5mC]*eA*eG*eA; antisense) [compound 21851]
[1]
  % INHIB'N MEMBRANE IL-5 RECEPTOR: 61%
[2]
  % INHIB'N SOLUBLE IL-5 RECEPTOR: 0%

## 26071 (antisense GCCGTTCTCCTGGATCCAAG; all 2'-MOE, all phosphorothioate, methylation of C not given here) [compound 26071]
Human bcl-x mRNA
  bcl-xs/bcl-xl: 7.97
Human bcl-xl mRNA
  % CONTROL bcl-xl: 37%
Human bcl-xs mRNA
  % CONTROL bcl-xs: 295%

## SEQ ID NO 57: AAGGCTCTAGGTGGTCATTC; 20mer 2′-MOE phosphorothioate, no ISIS # printed; Exon 1L 656-675 (all 2'-MOE, all phosphorothioate, methylation of C not given here)
Human bcl-x mRNA
  bcl-xs/bcl-xl: 7.64
Human bcl-xl mRNA
  % CONTROL bcl-xl: 53%
Human bcl-xs mRNA
  % CONTROL bcl-xs: 405%

## SEQ ID NO 55: GGCTCTAGGTGGTCATTCAG; 20mer 2′-MOE phosphorothioate, no ISIS # printed; Exon 1L 654-673 (all 2'-MOE, all phosphorothioate, methylation of C not given here)
Human bcl-x mRNA
  bcl-xs/bcl-xl: 6.72
Human bcl-xl mRNA
  % CONTROL bcl-xl: 47%
Human bcl-xs mRNA
  % CONTROL bcl-xs: 316%

## 21853 (eT*eA*eA*eA*eT*eG*eA*e[5mC]*eA*e[5mC]*e[5mC]*e[5mC]*eA*e[5mC]*eA*eT*eA*eA*eA*eT; antisense) [compound 21853]
[1]
  % INHIB'N MEMBRANE IL-5 RECEPTOR: 14%
[2]
  % INHIB'N SOLUBLE IL-5 RECEPTOR: 45%

## 21756 (eA*eA*e[5mC]*eA*eA*eG*eA*e[5mC]*eG*eA*eA*eG*e[5mC]*eA*eG*eG*e[5mC]*eA*eG*e[5mC]; splice-switching) [compound 21756]
[1]
  % control membrane IL-5 Rα: 6%
  % inhib'n membrane IL-5 Rα: 94%
[2]
  % control soluble IL-5 Rα: 166%

## 21753 (eA*e[5mC]*eA*eA*eT*eG*eA*eG*eA*eT*eG*e[5mC]*e[5mC]*eA*eT*eT*e[5mC]*eT*eA*e[5mC]; splice-switching) [compound 21753]
[1]
  % control membrane IL-5 Rα: 6%
  % inhib'n membrane IL-5 Rα: 94%
[2]
  % control soluble IL-5 Rα: 175%

## 21752 (eG*e[5mC]*e[5mC]*eA*eT*eT*e[5mC]*eT*eA*e[5mC]*e[5mC]*eA*eA*eG*eG*eA*e[5mC]*eT*eT*e[5mC]) [compound 21752]
[1]
  % control membrane IL-5 Rα: 6%
[2]
  % control soluble IL-5 Rα: 194%

## SEQ ID NO 58: CCAAGGCTCTAGGTGGTCAT; 20mer 2′-MOE phosphorothioate, no ISIS # printed; Exon 1L 658-677 (all 2'-MOE, all phosphorothioate, methylation of C not given here)
Human bcl-x mRNA
  bcl-xs/bcl-xl: 10.42
Human bcl-xl mRNA
  % CONTROL bcl-xl: 26%
Human bcl-xs mRNA
  % CONTROL bcl-xs: 271%

## 21847 (eG*eT*eT*eT*eT*eT*e[5mC]*e[5mC]*eT*eT*e[5mC]*eT*eG*eA*eA*eT*eG*eT*eG*eA; antisense) [compound 21847]
[1]
  % INHIB'N MEMBRANE IL-5 RECEPTOR: 23%
[2]
  % INHIB'N SOLUBLE IL-5 RECEPTOR: 20%

## 18008 (ACTCTGCAGATGAGTGAGAA; antisense; listed as DNA, chemistry not fully specified) [compound 18008]
[1]
  % inhibition of membrane IL-5 Rα: 75%
[2]
  % inhibition of soluble IL-5 Rα: 75%

## 21750 (eG*eA*e[5mC]*eT*eT*e[5mC]*e[5mC]*eT*eT*eT*e[5mC]*e[5mC]*eT*eT*eT*e[5mC]*e[5mC]*eT*eG*eG) [compound 21750]
[1]
  % control membrane IL-5 Rα: 8%
  % inhib'n membrane IL-5 Rα: 92%
[2]
  % control soluble IL-5 Rα: 197%

## 18006 (TGAGAAGATTAACAAGACGA; antisense; listed as DNA, chemistry not fully specified) [compound 18006]
[1]
  % inhibition of membrane IL-5 Rα: 59%
[2]
  % inhibition of soluble IL-5 Rα: 65%

## 18001 (CAAGGACTTCCTTTCCTTTC; antisense; listed as DNA, chemistry not fully specified) [compound 18001]
[1]
  % inhibition of membrane IL-5 Rα: 35%
[2]
  % inhibition of soluble IL-5 Rα: 39%

## 21755 (eA*eG*e[5mC]*eA*eG*eG*e[5mC]*eA*eG*e[5mC]*eT*eG*eT*eT*eG*eG*eG*eA*eG*e[5mC]; splice-switching) [compound 21755]
[1]
  % control membrane IL-5 Rα: 16%
  % inhib'n membrane IL-5 Rα: 84%
[2]
  % control soluble IL-5 Rα: 181%

## 21855 (eT*e[5mC]*eG*eA*eA*eG*eG*eT*eT*eT*e[5mC]*e[5mC]*eA*e[5mC]*eA*eT*eA*eA*eA*eT) [compound 21855]
[1]
  % INHIB'N MEMBRANE IL-5 RECEPTOR: 14%
[2]
  % INHIB'N SOLUBLE IL-5 RECEPTOR: 25%

## 18002 (GCCATTCTACCAAGGACTTC; listed as DNA, chemistry not fully specified) [compound 18002]
[1]
  % inhibition of membrane IL-5 Rα: 5%
[2]
  % inhibition of soluble IL-5 Rα: 8%

## 18004 (TGTTGGGAGCACAATGAGAT; antisense; listed as DNA, chemistry not fully specified) [compound 18004]
[1]
  % inhibition of membrane IL-5 Rα: 10%
[2]
  % inhibition of soluble IL-5 Rα: 20%

## 18003 (ACAATGAGATGCCATTCTAC; antisense; listed as DNA, chemistry not fully specified) [compound 18003]
[1]
  % inhibition of membrane IL-5 Rα: 15%
[2]
  % inhibition of soluble IL-5 Rα: 20%

## 18005 (AGCAGGCAGCTGTTGGGAGC; antisense; listed as DNA, chemistry not fully specified) [compound 18005]
[1]
  % inhibition of membrane IL-5 Rα: 55%
[2]
  % inhibition of soluble IL-5 Rα: 59%

## 21758 (eT*eG*e[5mC]*eA*eG*eA*eT*eG*eA*eG*eT*eG*eA*eG*eA*eA*eG*eA*eT*eT; splice-switching) [compound 21758]
[1]
  % control membrane IL-5 Rα: 31%
  % inhib'n membrane IL-5 Rα: 69%
[2]
  % control soluble IL-5 Rα: 116%

## 21754 (eT*eG*eT*eT*eG*eG*eG*eA*eG*e[5mC]*eA*e[5mC]*eA*eA*eT*eG*eA*eG*eA*eT; splice-switching) [compound 21754]
[1]
  % control membrane IL-5 Rα: 8%
  % inhib'n membrane IL-5 Rα: 92%
[2]
  % control soluble IL-5 Rα: 184%

## 23172 (GTTCCTGGCCCTTTCGGCTC; listed as DNA, chemistry not fully specified) [compound 23172]
Human bcl-x mRNA
  bcl-xs/bcl-xl* (change from the no-oligo ratio 17.56, which reads 1): 1.1

## 21759 (eA*e[5mC]*eT*e[5mC]*eT*eG*e[5mC]*eA*eG*eA*eT*eG*eA*eG*eT*eG*eA*eG*eA*eA; splice-switching) [compound 21759]
[1]
  % control membrane IL-5 Rα: 34%
  % inhib'n membrane IL-5 Rα: 66%
[2]
  % control soluble IL-5 Rα: 134%
